Data as given in paper PMC8041284, “Tunable Methacrylamides for Covalent Ligand Directed Release Chemistry” (Journal of the American Chemical Society, 2021).
Where two headings read alike, the source gives them in different places.

Target: BTK (Homo sapiens, UniProt Q06187)
[1] = 0.75 uM BTK, […] probe 3l, 15 min preincubation; 10 µM; inhibitor
[2] = 0.75 uM BTK, […] probe 3l, 15 min preincubation, 10 µM, inhibitor, BTK inhibition (%)

BTK, sequence (Q06187 402-655 limits assumed): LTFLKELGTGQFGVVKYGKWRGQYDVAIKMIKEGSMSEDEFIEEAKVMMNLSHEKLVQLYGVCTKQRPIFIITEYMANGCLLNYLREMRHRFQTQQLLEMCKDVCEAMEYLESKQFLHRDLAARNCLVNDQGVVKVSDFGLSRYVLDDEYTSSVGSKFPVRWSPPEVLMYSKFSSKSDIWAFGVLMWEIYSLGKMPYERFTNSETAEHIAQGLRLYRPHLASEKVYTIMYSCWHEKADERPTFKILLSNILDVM

CC[N+](C)(CC)CCOC(=O)C(O)(c1ccccc1)c1ccccc1 [PCM-0214829]
BTK inhibition (%) [1]: -19.5%

Nc1ccc(S(=O)(=O)Nc2ncccn2)cc1 [PCM-0214831]
BTK inhibition (%) [2]: 10.9%

CN1CC=C(c2ccccc2)CC1 [PCM-0214851]
BTK inhibition (%) (10 µM; inhibitor): 3.1%

CC1=C2C(=O)[C@H]3[C@@H](CC=C4C[C@@H](O)CC[C@@]43C)[C@@H]2CC[C@]12O[C@@H]1C[C@H](C)CN[C@H]1[C@H]2C [PCM-0214856]
BTK inhibition (%) (10 µM; inhibitor): -12.5%

CCN(CC)CCOC(=O)C(O)(c1ccccc1)c1ccccc1 [PCM-0214873]
BTK inhibition (%) [1]: 8.6%

CC1(C)[C@@H](O[C@H]2O[C@H](C(=O)O)[C@@H](O)[C@H](O)[C@H]2O[C@@H]2O[C@H](C(=O)O)[C@@H](O)[C@H](O)[C@H]2O)CC[C@]2(C)[C@H]3C(=O)C=C4[C@@H]5C[C@@](C)(C(=O)O)CC[C@]5(C)CC[C@@]4(C)[C@]3(C)CC[C@@H]12 [PCM-0214876]
BTK inhibition (%) [2]: 35.9%

COC(=O)Nc1nc2ccccc2[nH]1 [PCM-0214885]
BTK inhibition (%) [1]: -9.3%

CC(=O)Oc1ccccc1C(=O)O [PCM-0214911]
BTK inhibition (%) [2]: 1.6%

N[C@@H](C=O)[C@@H](O)[C@H](O)[C@H](O)CO [PCM-0214928]
BTK inhibition (%) [2]: -6.2%

C=C(C)[C@H]1Cc2c(ccc3c2O[C@@H]2COc4cc(OC)c(OC)cc4[C@@H]2C3=O)O1 [PCM-0214933]
BTK inhibition (%) [1]: 6.2%

C[C@H](CCC(=O)NCCS(=O)(=O)O)[C@H]1CC[C@H]2[C@@H]3[C@@H](O)C[C@@H]4C[C@H](O)CC[C@]4(C)[C@H]3CC[C@]12C [PCM-0214942]
BTK inhibition (%) [2]: 4.7%

COC1=C[C@@H]2[C@@H]3Cc4ccc(OC)c(O)c4[C@]2(CCN3C)CC1=O [PCM-0214970]
BTK inhibition (%) (10 µM, inhibitor): 0%

C=C[C@@H]1C2=CCOC(=O)C2=CO[C@H]1O[C@@H]1O[C@H](CO)[C@@H](O)[C@H](O)[C@H]1O [PCM-0214971]
BTK inhibition (%) [1]: -0.8%

O=C(/C=C/c1ccccc1)OC[C@H]1O[C@@H](O[C@@H]2OC=C[C@H]3[C@H](O)[C@@H]4O[C@]4(CO)[C@@H]23)[C@H](O)[C@@H](O)[C@@H]1O [PCM-0214975]
BTK inhibition (%) [1]: -1.6%

Cc1c([C@H](C)[C@@H]2NC[C@@H](C)C[C@H]2O)ccc2c1C[C@H]1[C@H]2CC=C2C[C@@H](O)CC[C@@]21C [PCM-0214977]
BTK inhibition (%) (10 µM; inhibitor): -2.3%

C[C@H](O)[C@H](O)[C@@H](O)[C@@H](O)C=O [PCM-0214991]
BTK inhibition (%) [2]: -11.7%

COc1ccc(/C=C/c2cc(OC)cc(OC)c2)cc1 [PCM-0214992]
BTK inhibition (%) (10 µM; inhibitor): 34.2%

CN1C2=C3N=c4ccccc4=C3CCN2C(=O)c2ccccc21 [PCM-0215051]
BTK inhibition (%) [2]: 4.7%

N[C@@H](C=O)[C@@H](O)[C@H](O)[C@H](O)CO [PCM-0215073]
BTK inhibition (%) [2]: -2.8%

CC(=O)N1C[C@H](O)C[C@H]1C(=O)O [PCM-0215090]
BTK inhibition (%) [1]: 8.6%

C=C[C@]1(C)C[C@@H](OC(=O)CSCCN(CC)CC)[C@]2(C)[C@H](C)CC[C@]3(CCC(=O)[C@H]32)[C@@H](C)[C@@H]1O [PCM-0215106]
BTK inhibition (%) [2]: -8.5%

Cc1cc(NS(=O)(=O)c2ccc(N)cc2)no1 [PCM-0215124]
BTK inhibition (%) [2]: 7%

COc1ccc(C=O)cc1O [PCM-0215127]
BTK inhibition (%) (10 µM; inhibitor): -7.8%

CCCC(CCC)C(=O)O [PCM-0215159]
BTK inhibition (%) [2]: 6.9%

CN[C@H]1[C@H](O)[C@H](O[C@@H]2[C@@H](O)[C@H](O[C@H]3O[C@H](C(C)O)[C@@H](O)[C@H](O)[C@H]3N)[C@@H](N)C[C@H]2N)OC[C@@]1(C)O (stereo partly shown) [PCM-0215175]
BTK inhibition (%) (10 µM; inhibitor): 6%

O=C1O[C@H]([C@@H](O)CO)C(O)=C1O [PCM-0215215]
BTK inhibition (%) [2]: -6.8%

C[C@@H]1O[C@@H]1P(=O)(O)O [PCM-0215255]
BTK inhibition (%) [2]: -21%

CC(=O)OC1CN2CCC1CC2 (stereo not shown) [PCM-0215275]
BTK inhibition (%) [1]: 4.7%

Nc1nc2[nH]cc(CCc3ccc(C(=O)N[C@@H](CCC(=O)O)C(=O)O)cc3)c2c(=O)[nH]1 [PCM-0215446]
BTK inhibition (%) [2]: -10.2%

CN1CCN(C(=O)C2C3CCC(O3)C2C(=O)O)CC1 (stereo not shown) [PCM-0215448]
BTK inhibition (%) [1]: -11.1%

CC(C)OC(=O)[C@H](C)N[P@](=O)(CO[C@H](C)Cn1cnc2c(N)ncnc21)Oc1ccccc1 [PCM-0215482]
BTK inhibition (%) [1]: -3.1%

O=C(Nc1ccc2c(O)cc(S(=O)(=O)O)cc2c1)Nc1ccc2c(O)cc(S(=O)(=O)O)cc2c1 [PCM-0215497]
BTK inhibition (%) [2]: 21.6%

CN1C(=O)[C@@]23C[C@]4([C@]56C[C@@]78SS[C@@](CO)(C(=O)N7[C@H]5Nc5ccccc56)N(C)C8=O)c5ccccc5N[C@@H]4N2C(=O)[C@]1(CO)SS3 [PCM-0215602]
BTK inhibition (%) (10 µM; inhibitor): 5.4%

Nc1ncnc2c1ccn2[C@@H]1O[C@H](CO)[C@@H](O)[C@H]1O [PCM-0215658]
BTK inhibition (%) (10 µM; inhibitor): 10.8%

CCCCCc1cc(O)cc(O)c1 [PCM-0215917]
BTK inhibition (%) (10 µM; inhibitor): -13.9%

O=C/C=C/c1ccccc1 [PCM-0215920]
BTK inhibition (%) [1]: 3.1%

O=C(O)C1C2CCC(O2)C1C(=O)O (stereo not shown) [PCM-0215947]
BTK inhibition (%) [1]: -7.7%

CCNc1nc(Cl)nc(NC(C)C)n1 [PCM-0215964]
BTK inhibition (%) [1]: 3.9%

C/C(=C\C(=O)OCCCCCCCCC(=O)O)C[C@@H]1OC[C@H](C[C@@H]2O[C@H]2[C@@H](C)[C@H](C)O)[C@@H](O)[C@H]1O [PCM-0215997]
BTK inhibition (%) [2]: 13.9%

COP(=O)(OC)SCn1c(=O)oc2cc(Cl)cnc21 [PCM-0215999]
BTK inhibition (%) (10 µM; inhibitor): -2.3%

COc1ccc(C=O)cc1 [PCM-0216000]
BTK inhibition (%) [1]: 17%

CC(C)c1ccc(C=O)cc1 [PCM-0216001]
BTK inhibition (%) [1]: -18.5%

COc1cc(NS(=O)(=O)c2ccc(N)cc2)nc(OC)n1 [PCM-0216005]
BTK inhibition (%) [2]: -11.6%

Cc1cc(C)nc(NS(=O)(=O)c2ccc(N)cc2)n1 [PCM-0216008]
BTK inhibition (%) [2]: 11.7%

O=C(Nc1ccc(Oc2ccc(Cl)cc2)c(Cl)c1)c1cc(I)cc(I)c1O [PCM-0216018]
BTK inhibition (%) [1]: 37.1%

c1c2c(cc3c1OCO3)-c1cc3ccc4c(c3c[n+]1CC2)OCO4 [PCM-0216022]
BTK inhibition (%) [1]: -46.8%

O=C(O)O [PCM-0216036]
BTK inhibition (%) [2]: 4.3%

C=C[C@]1(C)C[C@@H](OC(=O)CSCCN(CC)CC)[C@]2(C)[C@H](C)CC[C@]3(CCC(=O)[C@H]32)[C@@H](C)[C@@H]1O [PCM-0216045]
BTK inhibition (%) [2]: 0%

C[C@@H]1O[C@@H]1P(=O)(O)O [PCM-0216062]
BTK inhibition (%) [2]: -39.1%

C=C1[C@H](CO)[C@@H](O)C[C@@H]1n1cnc2c(=O)[nH]c(N)nc21 [PCM-0216093]
BTK inhibition (%) [2]: 11%

COC(=O)c1ccccc1C(=O)OC [PCM-0216149]
BTK inhibition (%) [1]: -9.3%

ClC(Cl)=C(c1ccc(Cl)cc1)c1ccc(Cl)cc1 [PCM-0216164]
BTK inhibition (%) [1]: 10.8%

c1cc2c(cc1[C@H]1OC[C@H]3[C@@H]1CO[C@H]3c1ccc3c(c1)OCO3)OCO2 [PCM-0216178]
BTK inhibition (%) [1]: 29.3%

CN1[C@@H]2CC[C@H]1CC(OC(=O)c1c[nH]c3ccccc13)C2 (stereo partly shown) [PCM-0216191]
BTK inhibition (%) [2]: -12.4%

CO/N=C(\C(=O)N[C@@H]1C(=O)N2C(C(=O)O)=C(CSC(=O)c3ccco3)CS[C@H]12)c1csc(N)n1 [PCM-0216235]
BTK inhibition (%) [2]: 0.8%

O=C(O)O [PCM-0216262]
BTK inhibition (%) [2]: -6.2%

C/C=C(/C)C(=O)O[C@H]1[C@@H](OC(C)=O)c2c(ccc3ccc(=O)oc23)OC1(C)C [PCM-0216298]
BTK inhibition (%) [2]: 10%

C[C@H]1CC[C@]2(NC1)O[C@H]1C[C@H]3[C@@H]4CC[C@H]5C[C@@H](O)CC[C@]5(C)[C@H]4CC[C@]3(C)[C@H]1[C@@H]2C [PCM-0216325]
BTK inhibition (%) [1]: 13.9%

O=c1ccc2c(O)c3ccoc3cc2o1 [PCM-0216332]
BTK inhibition (%) (10 µM; inhibitor): -11.6%

CC1=C[C@]23C(=O)[C@@H](C=C(CO)[C@@H](O)[C@]2(O)[C@H]1O)[C@H]1[C@@H](C[C@H]3C)C1(C)C [PCM-0216393]
BTK inhibition (%) [1]: -3.1%

COc1cc([C@H]2OC[C@@H]3[C@@H]2CO[C@H]3c2cc(OC)c(O[C@@H]3O[C@H](CO)[C@@H](O)[C@H](O)[C@H]3O)c(OC)c2)cc(OC)c1O[C@@H]1O[C@H](CO)[C@@H](O)[C@H](O)[C@H]1O [PCM-0216398]
BTK inhibition (%) [1]: -10%

C/C=C\c1cc(OC)c(OC)cc1OC [PCM-0216406]
BTK inhibition (%) (10 µM; inhibitor): -3.9%

CC(C)C1=CC(=O)[C@@](C)([C@H]2[C@H](O)C[C@@]3(C)[C@@H]4CC=C5[C@@H](CC[C@@H](O[C@@H]6OC[C@@H](O)[C@H](O)[C@H]6O[C@@H]6O[C@@H](C)[C@H](O)[C@@H](O)[C@H]6O)C5(C)C)[C@]4(C)C(=O)C[C@]23C)O1 [PCM-0216419]
BTK inhibition (%) (10 µM; inhibitor): 2.3%

C1CCN2C[C@H]3C[C@H](CN4CCCC[C@@H]34)[C@H]2C1 [PCM-0216422]
BTK inhibition (%) [1]: 6.9%

C[C@H]1CCC2N(C1)C[C@H]1C3CC4[C@@H](CC(=O)C5C[C@@H](O)CC[C@@]54C)C3CCC1[C@]2(C)O (stereo partly shown) [PCM-0216425]
BTK inhibition (%) (10 µM; inhibitor): -17.8%

O=c1ccc2cc3ccoc3c(O)c2o1 [PCM-0216446]
BTK inhibition (%) [1]: -6.2%

C[C@H]1CC[C@@H]2N(C1)C[C@H]1[C@@H]3C[C@H]4[C@@H](CC(=O)[C@H]5C[C@@H](O)CC[C@@]54C)[C@@H]3CC[C@H]1[C@]2(C)O [PCM-0216485]
BTK inhibition (%) (10 µM; inhibitor): -13.9%
